Patent US20250368608A1, “SELECTIVE HDAC6 INHIBITOR” (ROYAL COLLEGE OF SURGEONS IN IRELAND, priority 2021, published 2025)
“Also recorded” adds a separate entry of the source.

Legend:
acetylated tubulin = test: Western blot of acetylated tubulin in cells; assay type: cell-based; conditions: increasing doses
Protocol: (§1) Protein samples for Western blot analysis were separated by 12% SDS-PAGE gels. Following separation on the gel, proteins were transferred using electrophoresis onto a nitrocellulose membrane and blocked at room temperature shaking in 5% milk (w/v) in TBS containing 0.5% Tween-20 (TBS-T). Membranes were incubated overnight at 4° C. with primary antibody. HRP tagged secondary antibodies were diluted in TBS-T/5% milk for 1 hr. Antibody reactive bands were detected with LAS-3000, Fujifilm. Fluorescent secondary antibodies were diluted 1:10000 in TBS-T/5% milk for 1 hour. Antibody reactive bands were detected with the Odyssey® infrared imaging system (LI-COR Biosciences). IRDye® 680LT and 800CW-Infrared Dye coupled anti-rabbit or anti-mouse (LI-COR Biosciences).

[1] = assay type: in vivo; conditions: 50 mg/kg, while on treatment
BT549 cells [2] = test: Extracellular flux assay (OCR); assay type: cell-based; conditions: BT549, 10 μM
Protocol: (§2) The bioenergetic function of cells in response to drug treatments was determined using a Seahorse Bioscience XF96 Extracellular Flux Analyzer (Seahorse Bioscience). Cells were seeded in specialized V7 Seahorse tissue culture plates (Agilent, 102601-100) for 24 hrs. […] One hr prior to experiment, cells were washed and changed to XF Base medium (Agilent, 10353-100) adjusted to pH 7.4. For OXPHOS experiments medium was supplemented with pyruvate (1 mM), L-glutamine (2 mM) and glucose (10 mM). […] For glycolysis experiments medium was supplemented with L-glutamine (1 mM). […] For all analysis values were normalized to protein concentration before baseline measurements were subtracted. The fold change was calculated relative to DMSO.

MDA-231 cells = test: Extracellular flux assay (OCR); assay type: cell-based; conditions: MDA-231, 10 μM
Protocol: as §2

MDA231 cells [3] = test: Extracellular flux assay (ECAR, glycolysis); assay type: cell-based; conditions: MDA231, 10 μM, 24 hr
Protocol: as §2

MCF10a cells = test: Extracellular flux assay (ECAR, glycolysis); assay type: cell-based; conditions: 10 μM, 24 hr
Protocol: as §2

aldolase [4] = test: Immunoprecipitation with acetyl beads; assay type: cell-based; conditions: 10 μM, 24 hr treatment
Protocol: Cell lysates were prepared in lysis buffer (50 mM Tris-HCL PH 7.4, 150 mM NACL, 1% Triton x100, 1 mM EDTA and protease inhibitors). Protein was quantified and 500 μg of protein was added to 20 μl of A-agarose beads (Pierce, 20333) and allowed to rotate for 1 hr at 4° C. and 3000 rpm. Proteins were centrifuged for 3 minutes at 3000 rpm at 4° C. Supernatant was added to 500 μl of lysis buffer, […] pan-specific anti-acetylated lysine beads (Immunechem, ICP0388) or control agarose beads, and made up to 1 ml with dH2O. Samples were rotated overnight at 4° C. at 3000 rpm. Samples were washed with lysis buffer and were resuspended in 30 μl of 2×IP Dye with BME and boiled and ran out on 12% SDS-PAGE gel.

[5] = test system: mitochondrial membrane potential; test: Mitochondrial membrane potential (TMRE); assay type: cell-based; conditions: 10 μM
Protocol: Apoptosis was assessed by Annexin V/propidium iodide (Biolegend, 640906, Sigma P4170) staining using LSRII Biosciences, Facscanto. Cell viability was detected by CellTiter-Glo® (My Bio, G3582) according to the manufacture's protocol. Mitochondrial membrane potential was measured by adding Tetramethylrhodamine, ethyl ester (TMRE) (Biosciences, T669) at 20 nM for 30 minutes at 37° C. and assessed by flow cytometry with FACS CANTO II.

MDA231 = test: 3D spheroid formation in Matrigel; assay type: cell-based; conditions: MDA231, 30 μM
Protocol: Individual wells of a 6 well plate was coated with Matrigel™ (Corning) and placed in an incubator at 37° C. for 30 min. 50,000 cells/ml were resuspended in RPMI supplemented with 2% Matrigel™ Cells were placed in Matrigel™ coated wells for 30 min at 37° C., after which RMPI supplemented with 2% Matrigel™ was added to the cultures. […] Cells were maintained in culture for 7 days in an incubator at 37° C., 5% CO2 and cultures imaged every 24 hrs with Nikon ECLIPSE TE300.

4T1 tumors [6] = test: 4T1 syngeneic breast mouse model; conditions: 50 mg/kg, two weeks, 4T1 model
Histone 4 (H4) = test: Acetylation of Histone 4 in cells; assay type: cell-based
Protocol: as §1

MDA231 cells [7] = test: Metabolite secretion, GC-MS; assay type: cell-based; conditions: MDA231, 10 μM, 24 hrs
Protocol: Media was centrifuged at 1,000×g to pellet cell debris and 5 μL of supernatant was extracted in 80% ice-cold methanol mixture containing isotope-labeled internal standards for lactate (Cayman Chemicals CLM-1579), and pyruvate (Cayman Chemicals CLM-2440) and evaporated to dryness.
(§3) Metabolite derivitzation using MOX-tBDMS was conducted as previously described (49).
(§4) Derivatized samples were analyzed by GC-MS using a DB-35MS column (30 m×0.25 mm i.d.×0.25 μm) installed in an Agilent 7890B gas chromatograph (GC) interfaced with an Agilent 5977B mass spectrometer as previously described (50) and corrected for natural abundance using in-house algorithms adapted from (51).

HDAC proteins (HDAC1-9) = test: HDAC inhibitory assay, isozyme panel; conditions: in vitro HDAC inhibitor screen
MDA231 cells [8] = test: U-13C6-glucose stable isotope tracing, GC-MS; assay type: cell-based; conditions: MDA231, 10 μM, 24 hrs
Protocol: Cells were seeded in 12-well tissue culture plates and left to adhere overnight. […] Following treatment, media was removed and cells were washed with 1×PBS before adding basic RPMI (Thermo Fisher Scientific, 11879020) supplemented with dialyzed FBS (Gibico 26400044) and either 10 mM of [U]-^13C6 labelled glucose (Cambridge Isotopes CLM-1396) for 30 minutes or tracing media containing 10 mM 1,2-^13C labelled glucose (Cambridge Isotopes CLM-504) for 12 h. Cellular metabolites were extracted after a brief wash with 0.9% ice-cold saline solution using a methanol/water/chloroform extraction method, as previously described (48).
as §3, §4

4T1 cell line = test: Extracellular flux assay (ECAR, glycolysis); assay type: cell-based, mouse; conditions: 4T1, 24 hrs
Protocol: as §2

MMTV-pyMT tumors = test: MMTV-pyMT genetic breast mouse model; conditions: 50 mg/kg, two weeks
4T1 tumors [9] = test: Tumor metabolites by GC-MS, 4T1 syngeneic breast cancer model; assay type: in vivo, mouse; conditions: 4T1 model
Protocol: Following 7 or 14 days treatment mice was fasted for 6-8 h prior to euthanasia and tumor harvest. Tumor metabolites were extracted in methanol/water/chloroform using the Qiagen TissueLyser LT, evaporated to dryness and resuspended in 80% methanol. The equivalent volume for 5 mg of tissue was further extracted in 80% ice-cold methanol mixture containing isotope-labeled standards for lactate (Cayman Chemicals CLM-1579), and pyruvate (Cayman Chemicals CLM-2440) and evaporated to dryness.
as §3, §4

MDA231 cells [10] = test: Migration and invasion assays (Boyden chamber); assay type: cell-based; conditions: MDA231, 30 μM
Protocol: (§5) Cell migration and invasion experiments were performed using the Boyden Chamber Assay (Corning, CLS3464). 500,000 cells were seeded in serum free RPMI media (Thermo Fisher Scientific, 118757093) in the upper chamber and RPMI media containing 10% FBS (Sigma, F2442), was placed in the lower chamber. For invasion experiments the upper chamber was coated with Matrigel™ (Corning). […] Following 24 hrs (migration experiments) or 48 hrs (invasion experiments) treatment cells were stained with 0.5% crystal violet.

BT549 cells [11] = test: Migration and invasion assays (Boyden chamber); assay type: cell-based; conditions: BT549, 30 μM
Protocol: as §5

aldolase [12] = test: Aldolase activity assay; assay type: cell-based
Protocol: (§6) The activity assay was performed as per the manufacturer's instructions (Aldolase: Biovision, K665, GAPDH: Sigma, MAK277). Values were normalized to protein concentrations and fold change was calculated relative to DMSO.

GAPDH = GAPDH activity assay; assay type: cell-based
Protocol: as §6

O=C(CSC1=NC2CCCCC2N1)N1CCOCC1 (stereo not drawn) [BAS-2]
acetylated tubulin level (acetylated tubulin): increase in the acetylated tubulin | toxicity as assessed by weight of the mice [1]: did not detect any overt evidence of toxicity | OCR, basal respiration and ATP production (BT549 cells [2]): did not observe any significant changes in OCR | OCR, basal respiration and ATP production (MDA-231 cells): did not observe any significant changes in OCR | glycolytic capacity (ECAR) (MDA231 cells [3]): reduced the glycolytic capacity | glycolysis and glycolytic capacity (ECAR) (MCF10a cells): did not affect the glycolysis or glycolytic capacity | acetylation of aldolase (aldolase [4]): increased the acetylation of aldolase | mitochondrial membrane potential [5]: no loss of mitochondrial membrane potential | 3D spheroid formation (MDA231): reduction in 3D spheroid formation | tumor weight and tumor volume (4T1 tumors [6]): reduction in tumor weight and tumor volume; also recorded: reduce tumor volume and weight | acetylation of Histone 4 (H4) (Histone 4 (H4)): did not cause an increase in acetylation of Histone 4 | secretion of lactate and pyruvate (MDA231 cells [7]): significant reduction in the secretion of lactate and pyruvate | HDAC isozymes inhibited (HDAC proteins (HDAC1-9)): inhibited only the isozyme HDAC6 | carbon incorporation from glucose into PEP, 3PG, lactate and pyruvate (MDA231 cells [8]): significant reduction in carbon incorporation from glucose | glycolysis and glycolytic flux (4T1 cell line): decrease in glycolysis and glycolytic flux | tumor volume (MMTV-pyMT tumors): reduction in tumor volume | intratumoral lactate (4T1 tumors [9]): trend towards decreased intratumoral lactate | intratumoral pyruvate levels (4T1 tumors [9]): significant reduction in intratumoral pyruvate levels | cell migration and invasion (MDA231 cells [10]): significant reduction in both cell migration and invasion | cell migration and invasion (BT549 cells [11]): significant reduction in both cell migration and invasion | aldolase enzymatic activity (aldolase [12]; BT-549 cells): dose-dependent significant reduction in aldolase enzymatic activity | aldolase enzymatic activity (aldolase [12]; MDA231 cells, 24 hrs): dose-dependent significant reduction in aldolase enzymatic activity | GAPDH activity (GAPDH; BT-549): dose dependent reduction in GAPDH activity | GAPDH activity (GAPDH; MDA-231): dose dependent reduction in GAPDH activity
